Measurements reported in US20230310352A1, “NOVEL COMPOSITIONS AND METHODS FOR THE TREATMENT OF LUNG FIBROSIS” (LAURENT PHARMACEUTICALS INC., priority 2020, published 2023).

How the values were obtained:
[1] = tested on: bleomycin-induced lung fibrosis; test: Intratracheal bleomycin mouse model of pulmonary fibrosis (28-day model); assay type: in vivo, C57BL/6N mice; conditions: Day 28; oral once daily Day 7 to Day 28; fenretinide 10 mg/kg (as LAU-7b SDI), pirfenidone 100 mg/kg
Text: Oral administration of a solid, amorphous dispersion formulation of fenretinide (LAU-7b SDI) was provided as a treatment for reduction of pulmonary fibrosis, in a mouse model of lung fibrosis induced via a single intratracheal administration of bleomycin, for 21 days. The LAU-7b SDI formulation was obtained by spray drying and contains fenretinide in amorphous form in a solid dispersion comprising a matrix polymer, based on the following formula: 40% fenretinide, 59.6% povidone (KOLLIDON® 30), 0.24% butylated hydroxyanisole (BHA) and 0.16% butylated hydroxytoluene (BHT).
Male C57BL/6N mice from Charles River Laboratories, 10-12 weeks of age, weighing around 20-25 g, at the time of their enrolment, received 50 μL of bleomycin sulfate (2.0 mg/kg) by a single intratracheal instillation on Day 1 of the study to induce lung fibrosis. The sham group received an equivalent volume of 0.9% saline. On Day 7 postbleomycin instillation, the animals were randomized in groups of animals based on their body weight loss and enhanced pause airway resistance estimate (PenH value), while the sham group had 6 mice. Oral dosing by gavage (10 mL/kg) with the vehicle (sham and BLM control groups), the test articles (fenretinide 10 mg/kg), and the reference compound (pirfenidone 100 mg/kg) were administered once daily starting from Day 7 to Day 28. Two hours following the last dose on Day 28, all mice were sacrificed, the lungs of each mouse harvested, flushed with 0.9% NaCl and inflated with 10% neutral buffered formalin solution. After embedding and mounting of the lung tissue (transversal slices of 5 μm thickness), the histology slides were stained with hematoxylin/eosin for the Ashcroft score evaluation by a treatment-blinded pathologist and with Sirius red staining for automated fibrosis quantification (Biocelvia, France).
The key endpoints evaluated in this study were Ashcroft score, pulmonary foci and collagen content obtained by histological assessment of the lung tissue at the end of the study. Statistical analysis was made on normally distributed data by one-way ANOVA followed by multiple comparisons (Fisher's LSD post hoc test) to assess the difference between the groups, using Graph Pad Prism Software version 8.0 (San Diego, CA, USA). Differences were considered statistically significant when P values were p<0.05 (*), or p<0.01 (**) or p<0.001 (***).
Ashcroft scale for the evaluation of bleomycin-induced lung fibrosis is the analysis of stained histological samples by visual assessment. The Ashcroft score was assessed in lung tissue collected on Day 28 by treatment-blinded pathologist on H&E stained lung tissue histology slides (3 cross sections/animal) and using the modified Ashcroft scale. Briefly, each lung section was scanned at a magnification of x100 (H&E staining), read by a blinded examiner, and graded from 0 (normal lung) to 8 (total fibrotic obliteration of the field). Criteria for grading lung fibrosis in Ashcroft scale are as follows: Grade 0=normal lung; Grade 1=minimal fibrous thickening of alveolar or bronchiolar walls; Grade 3=moderate thickening of walls without obvious damage to lung architecture; Grade 5=increased fibrosis with definitive damage to lung structure and formation of fibrous bands or small fibrous masses; Grade 7=severe distortion of structure and large fibrous area; Grade 8=total fibrous obliteration of lung fields. The mean value of the grades obtained for each of the three sections was used as the Ashcroft score. Ashcroft score, using the modified scale, is a reliable and reproducible method of visual quantification of bleomycin induced lung fibrosis in H&E stained histological lung sections based on description of the general morphology of alveolar septa and lung structure. […]

[2] = tested on: bleomycin-induced lung fibrosis; test: Intratracheal bleomycin mouse model of pulmonary fibrosis (21-day model); assay type: in vivo, C57BL/6N mice; conditions: Day 21; oral once daily for 14 days; fenretinide 10 mg/kg (as LAU-7b SDI), pirfenidone 100 mg/kg
Procedure: Oral administration of a solid amorphous dispersion formulation of fenretinide (LAU-7b SDI) was evaluated in treating and/or reducing pulmonary fibrosis in mouse model of lung fibrosis induced via a single intratracheal administration of bleomycin followed by vehicle, fenretinide (LAU-7b SDI) or pirfenidone oral treatment for 21 days. The LAU-7b SDI formulation was obtained by spray drying and contains fenretinide in amorphous form in a solid dispersion comprising a matrix polymer, based on the following formula: 40% fenretinide, 59.6% povidone (KOLLIDON® 30), 0.24% butylated hydroxyanisole (BHA) and 0.16% butylated hydroxytoluene (BHT).
Male C57BL/6N mice from Charles River Laboratories, 10-12 weeks of age, weighing around 20-25 g, at the time of their enrolment, received 50 μL of bleomycin sulfate (2.0 mg/kg) by a single intratracheal instillation on Day 1 of the study. The Sham group received an equivalent volume of 0.9% saline. On Day 7 post-bleomycin instillation the animals were randomized in groups of 8 animals based on their body weight loss and Penh value. Oral dosing by gavage (10 mL/kg) with the vehicle (sham and BLM Control groups), LAU-7b SDI (fenretinide at 5 mg/kg and 10 mg/kg dose), and the reference compound (pirfenidone 100 mg/kg) were initiated once daily starting from Day 7 to Day 21. Two hours following the last dose on Day 21 all the mice were sacrificed, the lungs of each mouse were harvested, flushed with 0.9% NaCl and inflated with 10% neutral buffered formalin solution. After embedding and mounting of the lung tissue (transversal slices of 5 μm thickness), the histology slides were stained with hematoxylin/eosin for the Ashcroft score evaluation by a treatment-blinded pathologist, and with Sirius red staining for automated fibrosis quantification (Biocellvia, France).
As in Example 4, the key endpoints evaluated in this study were the Ashcroft score, pulmonary foci and collagen content obtained by histological assessment of the lung tissue at the end of the study. Statistical analysis was made on normally distributed data by one-way ANOVA followed by multiple comparisons (Fisher's LSD post hoc test) to assess the difference between the groups, using Graph Pad Prism Software version 8.0 (San Diego, CA, USA). Differences were considered statistically significant when P values were p<0.05 (*), or p<0.01 (**) or p<0.001 (***). The Ashcroft score was assessed in the lung tissue by treatment-blinded pathologist on the H&E stained histology slides (2 cross sections/animal) and using the modified Ashcroft scale. Briefly, each lung section was scanned at a magnification of ×100 (H&E staining), and graded from 0 (normal lung) to 8 (total fibrotic obliteration of the field). The mean value of the grades obtained for each of the two sections was used as the Ashcroft score.
Pulmonary foci (fibrotic tissue) and lung collagen content were quantified in the Sirius red stained lung tissue histology sections by high resolution, automated digital image analysis (Biocellvia, France) on Day 21 after lung fibrosis induction by bleomycin (BLM) instillation and following a 14-day oral gavage treatment with LAU-7b SDI (fenretinide, two doses), pirfenidone (reference drug) or vehicle only. Full field analysis of 2 lung sections per animal was conducted and the results were expressed as a mean percentage of total surface. This test is considered highly reliable, offering reproducible and observer-independent assessment of quantitative analysis of fibrosis.

Cc1ccc(=O)n(-c2ccccc2)c1 [pirfenidone]
Ashcroft score vs BLM control [1]: did not induce significant improvement
percentage of collagen content in lung tissue, automated Sirius red analysis, vs BLM control [1]: significantly reduced
percentage of pulmonary foci (fibrotic tissue), automated Sirius red analysis, vs BLM control [1]: nonsignificant effect
Ashcroft score vs BLM control [2]: reduced significantly
percentage of collagen content, automated Sirius red analysis, vs BLM control [2]: did not induce statistically significant reduction
percentage of pulmonary foci, automated Sirius red analysis, vs BLM control [2]: did not induce statistically significant reduction
